In brackets after ≈: the same amount, converted by molar mass. Like-named read-outs stand apart in the source and are kept apart here. Blank lines part the entries; values can stand above or below the compound they belong to.
Assays:
Alternaria tenuis = test: minimum inhibitory concentration against fungi (agar); assay type: cell-based; conditions: Alternaria alternata, 336 h
Method: (§1) An agar prepared from beer wort and peptone is mixed with the substance according to the invention at concentrations from 0.5 mg/l to 5,000 mg/l.
(§2) After storage for 2 weeks at 28° C. and 60 to 70% relative atmospheric humidity, the MIC is determined. The MIC is the lowest concentration of active agent with which no growth by the type of microbe used ensues; it is given in the table below.

Aspergillus niger = test: as above; assay type: cell-based; conditions: 336 h
Method: as §1, §2

Cladosporium herbarum = test: as above; assay type: cell-based; conditions: 336 h
Method: as §1, §2

Coniophora cerebella = test: as above; assay type: cell-based; conditions: 336 h
Method: as §1, §2

Paecilomyces varioti = test: as above; assay type: cell-based; conditions: 336 h
Method: as §1, §2

Penicillium citrinum = test: as above; assay type: cell-based; conditions: 336 h
Method: as §1, §2

Penicillium glaucum = test: as above; assay type: cell-based; conditions: 336 h
Method: as §1, §2

Pullularia pullulans = test: as above; assay type: cell-based; conditions: 336 h
Method: as §1, §2

Stachybotris atra C. = test: as above; assay type: cell-based; conditions: 336 h
Method: as §1, §2

Trichoderma viride = test: as above; assay type: cell-based; conditions: 336 h
Method: as §1, §2

Escherichia coli = test: action against bacteria, MIC (bouillon agar); assay type: cell-based; conditions: 336 h
Method: An agar, containing bouillon as a nutrient medium, is treated with the active agents A and B (Example 2) given in Table II at concentrations from 1 to 5,000 ppm. The nutrient medium is then inoculated with either Escherichia coli or Staphylococcus aureus and the inoculated medium is maintained for 2 weeks at 28° C. and 60 to 70% relative atmospheric humidity. The MIC is the lowest concentration of active agent with which no growth by the type of microbe used ensues.

[1] = solubility of substance A compared to substance B; assay type: physicochemical
Method: Solubility of substance A compared to substance B (g/l at 20° C.): […]

[2] = beer wort/peptone agar, 2 weeks at 28° C., 60 to 70% relative humidity, read-out: MIC

Compound: CN(C)S(=O)(=O)N(SC(F)(Cl)Cl)c1ccccc1 [B]
MIC (Alternaria tenuis): 20 mg/L (≈ 0.06 mM)
MIC (Aspergillus niger): 50 mg/L (≈ 0.15 mM)
MIC (Cladosporium herbarum): 35 mg/L (≈ 0.105 mM)
MIC (Coniophora cerebella): 10 mg/L (≈ 0.03 mM)
MIC (Paecilomyces varioti; Paecilomyces): 20 mg/L (≈ 0.06 mM)
MIC (Penicillium citrinum): 150 mg/L (≈ 0.45 mM)
MIC (Penicillium glaucum; Penicillium): 35 mg/L (≈ 0.105 mM)
MIC (Pullularia pullulans): 20 mg/L (≈ 0.06 mM)
MIC (Stachybotris atra C.): 50 mg/L (≈ 0.15 mM)
MIC (Trichoderma viride): 5000 mg/L (≈ 15 mM)
MIC (Escherichia coli): 500 mg/L (≈ 1.5 mM)
Solubility ([1]; Ethyl acetate, 20° C.): 117 mg/mL (≈ 351 mM)
Solubility ([1]; Shellsol AB, 20° C.): 60 mg/mL (≈ 180 mM)
Solubility ([1]; Solvesso 100, 20° C.): 75 mg/mL (≈ 225 mM)
Solubility ([1]; Xylene, 20° C.): 65 mg/mL (≈ 195 mM)

MIC (Alternaria tenuis; Alternaria tenuis, beer wort/peptone agar, 2 weeks at 28° C., 60 to 70% relative humidity, read-out: MIC): 10 mg/L (≈ 0.0338 mM)
MIC (Aspergillus niger; [2]): 200 mg/L (≈ 0.675 mM)
MIC (Cladosporium herbarum; [2]): 7 mg/L (≈ 0.0236 mM)
MIC (Coniophora cerebella; [2]): < 1 mg/L
MIC (Paecilomyces varioti; Paecilomyces varioti, beer wort/peptone agar, 2 weeks at 28° C., 60 to 70% relative humidity, read-out: MIC): 10 mg/L (≈ 0.0338 mM)
MIC (Penicillium citrinum; [2]): 7 mg/L (≈ 0.0236 mM)
MIC (Penicillium glaucum; Penicillium glaucum, beer wort/peptone agar, 2 weeks at 28° C., 60 to 70% relative humidity, read-out: MIC): 10 mg/L (≈ 0.0338 mM)
MIC (Pullularia pullulans; Pullularia pullulans, beer wort/peptone agar, 2 weeks at 28° C., 60 to 70% relative humidity, read-out: MIC): 5 mg/L (≈ 0.0169 mM)
MIC (Stachybotris atra C.; Stachybotris atra C., beer wort/peptone agar, 2 weeks at 28° C., 60 to 70% relative humidity, read-out: MIC): 15 mg/L (≈ 0.0507 mM)
MIC (Trichoderma viride; [2]): 200 mg/L (≈ 0.675 mM)
MIC (Escherichia coli; bouillon agar, 2 weeks at 28° C., 60 to 70% relative humidity, read-out: MIC): 200 mg/L (≈ 0.675 mM)
Solubility ([1]; Ethyl acetate, 20° C.): 330 mg/mL (≈ 1110 mM)
Solubility ([1]; Shellsol AB, 20° C.): 140 mg/mL (≈ 473 mM)
Solubility ([1]; Solvesso 100, 20° C.): 200 mg/mL (≈ 675 mM)
Solubility ([1]; Xylene, 20° C.): 250 mg/mL (≈ 844 mM)
solubility properties (in words) ([1]; particularly when compared to substance B): very good solubility properties
Compound: O=C1C2C3C=CC(C3)C2C(=O)N1SC(F)(Cl)Cl (stereo not shown) [A]

Source: patent US4513003A, “Process for protecting wood using N-(dichlorofluoromethylthio)-3,6-endomethylene-Δ^4 -tetrahydrophthalimide” (Bayer Aktiengesellschaft, priority 1981, dated 1985)
